Positions count from the first letter of the chain named. Like-named read-outs stand apart in the source and are kept apart here.
How the values were obtained:
[1] = target: T1, NBD-ZPI–PZ interactions (Homo sapiens, UniProt Q9UK55, C190A/C285S/K260C); assay: Titrations of NBD-ZPI with PZ in absence and presence of fixed levels of heparin; format: binding; details: read-out: ZPI–heparin KD,H (predicted)
T1 construct: made in house; host or cells: Escherichia coli
T1 sequence (Q9UK55 22-444 C190A/K260C/C285S): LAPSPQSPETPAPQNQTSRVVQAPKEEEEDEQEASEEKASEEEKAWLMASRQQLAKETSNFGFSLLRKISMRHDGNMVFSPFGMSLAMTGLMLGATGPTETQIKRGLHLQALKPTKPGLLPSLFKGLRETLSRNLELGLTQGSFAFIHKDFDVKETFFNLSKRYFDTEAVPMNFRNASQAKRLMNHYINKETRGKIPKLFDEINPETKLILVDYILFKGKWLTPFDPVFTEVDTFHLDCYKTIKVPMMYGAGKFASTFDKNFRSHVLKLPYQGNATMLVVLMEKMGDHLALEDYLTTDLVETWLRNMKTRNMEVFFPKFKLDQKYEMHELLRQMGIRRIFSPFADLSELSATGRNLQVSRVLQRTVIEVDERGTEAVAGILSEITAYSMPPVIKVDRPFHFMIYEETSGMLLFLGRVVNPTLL
Protocol: The effect of heparin on PZ binding to ZPI was measured by titrations of 50 nM NBD-ZPI with PZ in the absence and presence of different fixed levels of heparins of various lengths in the higher ionic strength buffer used for emission spectra. Titrations were monitored from the enhancement of NBD-ZPI fluorescence that signals PZ binding. These titrations were fit by the quadratic binding equation, ΔFobs/F0=ΔFmax/F0×[ZPI]0+[PZ]0+KD,PZapp−([ZPI]0+[PZ]0+KD,PZapp)^2−4×[ZPI]0×[PZ]0/2×[ZPI]0 where ΔFobs/Fo and ΔFmax/Fo are the observed and maximal fluorescence changes after addition of PZ expressed relative to the initial free NBD-ZPI fluorescence, respectively, and KD,PZapp = KD,PZ × (1 + [H]o/KD,H) is the apparent dissociation constant for the ZPI–PZ interaction in the absence or presence of heparin. The fitted parameters were KD,PZapp and ΔFmax/Fo.

[2] = target: T2, helix H site mutant ZPI (K260A/R263A/R305A/K308A/R310A) (Homo sapiens, UniProt Q9UK55, K281A/K329A/R284A/R326A/R331A); assay: Direct heparin binding titrations monitored by intrinsic protein fluorescence quenching; details: 200 nM helix H site mutant ZPI
T2 construct: made in house; host or cells: Escherichia coli
T2 sequence (Q9UK55 22-444 K281A/R284A/R326A/K329A/R331A): T1 sequence (Q9UK55 22-444 C190A/K260C/C285S) with A169C, C239K, K260A, R263A, S264C, R305A, K308A, R310A
Protocol: Fluorescence emission spectra of NBD-ZPI (50–100 nM) were measured in the absence or the presence of PZ and heparin in 20 mM Tris buffer (pH 7.4), 0.2 M NaCl, 0.1% PEG 8000, 1 mg/ml bovine serum albumin (BSA), and 2.5 mM CaCl2 with an SLM 8000 spectrofluorometer with excitation at 480 nm over the emission range of 500 to 600 nm. Intrinsic protein fluorescence of WT and mutant ZPIs (200 nM to 1 μM) was measured in the same buffer without BSA, with excitation at 280 nm over the emission range of 300 to 400 nm. Emission was monitored in 5-nm steps with 5 to 10 s of integrations per step. Spectra were obtained in triplicate and averaged. Buffer, buffer plus PZ, or buffer plus heparin background spectra were subtracted, and dilution corrections were made for added PZ or heparin (<10%). Direct equilibrium binding of heparin to ZPI was measured by titrations of unlabeled WT and variant ZPIs (0.2–1 μM) with heparin monitored by the quenching of intrinsic protein fluorescence accompanying heparin binding at excitation and emission wavelengths of 280 and 340 nm, respectively. Titrations were computer fit by the aforementioned quadratic binding equation with [H]o replacing [PZ]o and KD,H replacing KD,PZapp.

Kd ([1]; calculated from KD,PZapp at 211 μM heparin): 53 µM | Kd ([1]; calculated from KD,PZapp at 423 μM heparin): 44 µM | Kd [2]: 142 ± 42 µM
SMILES: CO[C@H]1O[C@H](COS(=O)(=O)O)[C@@H](O[C@@H]2O[C@@H](C(=O)O)[C@@H](O[C@H]3O[C@H](COS(=O)(=O)O)[C@@H](O[C@@H]4O[C@H](C(=O)O)[C@@H](O[C@H]5O[C@H](COS(=O)(=O)O)[C@@H](O)[C@H](O)[C@H]5NS(=O)(=O)O)[C@H](O)[C@H]4O)[C@H](OS(=O)(=O)O)[C@H]3NS(=O)(=O)O)[C@H](O)[C@H]2OS(=O)(=O)O)[C@H](O)[C@H]1NS(=O)(=O)O [H5, fondaparinux]
